Data published in publication PMC11268479, “Delineation of the complete reaction cycle of a natural Diels–Alderase” (Chemical Science, 2024).
Several values for one entry are separate records, joined by “and”; a condition that tells them apart may be missing. Identical values can stand only once. Like-named read-outs stand apart in the source and are kept apart here.

What was measured:
[1] = Uncatalysed (spontaneous) cyclisation of substrate 5, stopped-flow; assay type: physicochemical; details: SF buffer, no enzyme, 10 s, 20 °C, pH 7.5, 10% acetonitrile
Experimental: Stopped-Flow (SF) experiments were performed using a Hi-Tech Scientific KinetAsyst Stopped-Flow System spectrophotometer (TgK Scientific, Bradford on Avon, UK). Both syringe 1 and 2 were washed with ddH2O and SF buffer (18 mM Tris–HCl, 135 mM NaCl, 10% acetonitrile, pH 7.5). 10% acetonitrile was maintained in both syringes at all times to ensure solubility of the substrate. The stop-flow was zeroed and references were taken using SF buffer in each syringe for burst phase kinetics. Purified recombinant AbyU in SEC buffer (20 mM Tris–HCl, 150 mM NaCl, pH 7.5), was diluted to a final concentration of 800 μM AbyU in SF buffer. […] This ensured a high number of readings in the first seconds of the experiment. […]
Results were fitted using Graphpad Prism. […] The amplitude of the change in absorbance was converted to concentration using the following measured absorbance coefficient for substrate 5: ε325 nm = 13 200 M^−1 cm^−1 and the following measured absorbance coefficient for product 6: ε325 nm = 1085 M^−1 cm^−1. […] Initial concentrations of substrate 5 were calculated from the absorbance at t = 0, to account for uncatalysed substrate turnover, and the tendency of the substrate to have a weak affinity with the plastic present in the stop-flow apparatus. […] The slope of the line was determined for each substrate concentration and averaged over 3–5 repeats.

AbyU [2] = target: T1, AbyU (Micromonospora maris, UniProt Z9P124SIT8, F95Y, form not given); assay: Steady-state kinetics of the AbyU catalysed conversion of 5 to 6 (Michaelis–Menten fit); assay type: biochemical, Micromonospora maris AB-18-032
T1 sequence (Z9P124SIT8 1-160 F95Y): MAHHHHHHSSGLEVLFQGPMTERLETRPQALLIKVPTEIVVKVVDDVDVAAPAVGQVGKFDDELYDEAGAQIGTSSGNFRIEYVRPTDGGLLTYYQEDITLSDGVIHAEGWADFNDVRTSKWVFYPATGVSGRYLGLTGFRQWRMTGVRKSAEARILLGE
Experimental: Fig. 5 Burst phase characterisation of the AbyU catalysed conversion of 5 to 6. (a) Example of the transient observed (blue) in the reaction of 54 μM 5 with 1 μM AbyU, shown on a logarithmic scale with a linear scale shown inset for comparison. The transient is fitted to eqn (3) (black line, see Fig. S9 ^† for fitting analysis). (b) The rate of turnover in each burst phase as a function of the concentration of 5. Data for kburst1 is fitted to a one-step binding model (eqn (4)) and kburst2 is fitted to a two-step binding model (eqn (5)). (c) Steady-state kinetics fitted to the Michaelis–Menten equation (eqn (S1) ^†). […] This is perhaps unsurprising, as the conformationally constricted product must by necessity dissociate from the ‘closed’ active site. Steady-state kinetics reveal the impact that product release has upon the overall rate. […] Stopped-Flow (SF) experiments were performed using a Hi-Tech Scientific KinetAsyst Stopped-Flow System spectrophotometer (TgK Scientific, Bradford on Avon, UK). […] This ensured a high number of readings in the first seconds of the experiment. […] The amplitude of the change in absorbance was converted to concentration using the following measured absorbance coefficient for substrate 5: ε325 nm = 13 200 M^−1 cm^−1 and the following measured absorbance coefficient for product 6: ε325 nm = 1085 M^−1 cm^−1. […]

[3] = target: AbyU (Micromonospora maris); assay: Single turnover stopped-flow kinetics of the AbyU catalysed conversion of 5 to 6 (excess enzyme, absorbance 325 nm); assay type: biochemical, Micromonospora maris AB-18-032; details: single turnover, 10 s, 20 °C, pH 7.5, 10% acetonitrile, eqn (2); read-out: Ki from substrate inhibition fit of kobs2 vs [5] (binding affinity for slower reacting species)
Sequence of AbyU (Micromonospora maris) (Z9P124SIT8 1-160 F95Y): as above
Source text: (§1) To further investigate the AbyU catalysed reaction stopped-flow kinetic studies were undertaken employing substrate 5. […] This feature is lost upon cyclisation and thus constitutes a viable spectrophotometric probe to monitor the AbyU catalysed conversion of substrate 5 to product 6 (Fig. 1b). […] We assessed the quality of the fit from the plotted residuals.
(§2) As the concentration of 5 increases, a concomitant decrease in the rate constants kobs1 and kobs2 is observed. […] These different conformational populations cannot be individually resolved using ensemble kinetic measurements unless their rate constants differ by at least an order of magnitude, therefore, the observed rate constant reflects average behaviour. The relative equilibrium saturation constants observed for two different binding conformations can be obtained by examining the dependence of kobs2 on (Fig. 3b). From Fig. 3b, the data present as apparent substrate inhibition. In this case, we can envisage that the ‘slow’ reacting species effectively acts as a weak inhibitor relative to the ‘fast’ reacting species, thus presenting as apparent substrate inhibition.
(§3) It should be noted that the species reflected by the third exponential phase has a larger equilibrium constant than the faster reacting species, with a rate of reaction approximately 20-fold slower than the steady-state rate of the enzyme (Fig. S6 ^†). As it represents an insignificant component of the steady-state reaction, we have not analysed this phase any further.
(§4) Stopped-Flow (SF) experiments were performed using a Hi-Tech Scientific KinetAsyst Stopped-Flow System spectrophotometer (TgK Scientific, Bradford on Avon, UK). Both syringe 1 and 2 were washed with ddH2O and SF buffer (18 mM Tris–HCl, 135 mM NaCl, 10% acetonitrile, pH 7.5). 10% acetonitrile was maintained in both syringes at all times to ensure solubility of the substrate. The stop-flow was zeroed and references were taken using SF buffer in each syringe for burst phase kinetics. Purified recombinant AbyU in SEC buffer (20 mM Tris–HCl, 150 mM NaCl, pH 7.5), was diluted to a final concentration of 800 μM AbyU in SF buffer. This solution of AbyU was placed in syringe 1 to obtain references for the single turnover experiments. For the multiple turnover experiments, AbyU was added to syringe 1 at a concentration of 2 μM (diluted in SF buffer). Likewise, substrate 5 was diluted in SF buffer to double the reaction concentration and placed in syringe 2. 50 μL from each syringe was injected into the mixing chamber and measurement immediately commenced. Reactions were observed using a logarithmic timebase over either 1000 s or 10 s. For the 1000 s experiments, the timeframe was split into 15 cycles, each with 200 points, each of which was distributed in a logarithmic manner. This ensured a high number of readings in the first seconds of the experiment. […] This was compounded by the weak affinity of substrate 5 for the plastic components in the SF system, rendering it impossible to precisely replicate the concentration of 5 in the reaction chamber over multiple syringes. To measure the uncatalysed rate of substrate cyclisation, the stop flow was zeroed and references were taken using SF buffer in both syringes. Varying concentrations of substrate 5 were added to syringe 2 and measurements were taken using a linear time base over 10 seconds. All reactions were performed at 20 °C.
(§5) Results were fitted using Graphpad Prism. […]

AbyU [4] = target: T1, AbyU; assay: as above; assay type: biochemical, Micromonospora maris AB-18-032
Source text: as §1, §2, §3, §4, §5

AbyU [5] = target: T1, AbyU; assay: Multiple turnover (burst phase) stopped-flow kinetics of the AbyU catalysed conversion of 5 to 6; assay type: biochemical, Micromonospora maris AB-18-032
Experimental: To formally identify the rate-limiting step in the AbyU catalysed cycloaddition reaction, a multiple turnover kinetics experiment was undertaken. The stopped-flow transients (Fig. 5a) reveal two distinguishable burst phases when fitted to eqn (3), a derivative of eqn (1), which incorporates a linear phase to account for multiple turnovers in the steady-state.3 [drawing 3]
When the data for kburst1 are fitted to eqn (4), kon and koff can be determined to be 0.88 ± 0.03 μM^−1 s^−1 and 3.4 ± 0.71 s^−1, for substrate binding and dissociation respectively, in this conformation.4 kburst1 = kburst1on[S] + kburst1off
The relationship between the slower burst phase, kburst2 and substrate concentration, in contrast, fits well to, and is highly representative of, a two-step binding interaction (eqn (5) (ref. [32])).5 kburst2 = 1/2(p − q)where:5.1 p = kburst2on1 × [S] + kburst2off1 + kburst2on2 + kburst2off25.2 [drawing 4] 5.3 r = kburst2on1 × [S] × kburst2on2 + kburst2off1 × kburst2off2 + kburst2on1 × [S] × kburst2off2
as §4
Results were fitted using Graphpad Prism. Data obtained before 2 ms was discarded, reflecting the dead-time of the instrument. Data were fit to equations as outlined in the text. The 10 s single turnover kinetic data were fitted to two exponentials with a sloping baseline (eqn (3)). […] To circumvent this, the data between 3 s and 10 s were separately fitted to a straight line to determine the initial rate of k3. In order to fully analyse the change in the reaction rate with respect to the concentration of 5, 3–6 transients at each substrate concentration were taken and the rate and amplitude parameters derived from the fit appropriate for each transient (Fig. S4 and S9 ^†). The background rate of reaction (Fig. S11 ^†) was removed from the steady-state reaction and from the linear portion of k3. The other exponential phases occur too rapidly for the background rate of reaction to have an appreciable influence on the data. […]

[6] = burst phase 1, eqn (4), 20 °C, pH 7.5
[7] = burst phase 2, two-step binding, eqn (5), 20 °C, pH 7.5

## C=C1OC(=O)C(C(=O)[C@H](C)C[C@H](C)C(=O)/C=C/C=C/C=C/C)=C1OC [compound 5]
[1]
  kspont (spontaneous cyclisation of 5): 1250 ± 17 M⁻¹ s⁻¹
AbyU [2]; ratio
  kcat slower than the initial rate of kburst1: around 230 times
AbyU [2]; steady-state, 20 °C, pH 7.5, 10% acetonitrile
  kcat: 0.116 ± 0.005 s⁻¹
[3]
  Ki: 54900 ± 14500 nM
AbyU [4]; binding in ES3 conformation (third phase), 20 °C, pH 7.5
  k3: ≈5.7 × 10^−4 ± 3.8 × 10^−5 μM^−1 s^−1
AbyU [4]; dissociation from ES3 conformation (third phase), 20 °C, pH 7.5
  k−3: ≈6.9 × 10^−3 ± 1.9 × 10^−3 s^−1
AbyU [4]; ratio
  rate of third exponential phase slower than the steady-state rate of the enzyme: approximately 20 fold
AbyU [4]; single turnover, 10 s, 20 °C, pH 7.5, 10% acetonitrile, eqn (2), read-out: Km from substrate inhibition fit of kobs2 vs [5] (approximation of binding affinity for faster-reacting conformation(s))
  Km: 13.2 ± 3.2 µM
AbyU [5]; 20 °C, pH 7.5
  k5 (cyclisation once substrate is bound): N.D. (very quick)
AbyU [5]; apparent binding constant, two-step route, read-out: Kapp = K2 × K4
  Kd: 1300 nM
AbyU [5]; binding constant, ES2 conformation, read-out: K2 = k−2/k2
  Kd: 1970 ± 4240 nM
AbyU [5]; binding constant, ES conformation, read-out: K1 = k−1/k1
  Kd: 3860 ± 940 nM
AbyU [5]; [6]
  k1 (kon, kburst1, substrate binding, one-step): 880000 ± 30000 M⁻¹ s⁻¹
  k−1 (koff, kburst1, substrate dissociation): 3.4 ± 0.71 s⁻¹ and 3.41 ± 0.71 s⁻¹
AbyU [5]; [7]
  k2 (on rate, kburst2, sub-optimal conformation): 360000 ± 460000 M⁻¹ s⁻¹
  k4 (rearrangement within active site to most productive conformation): 1.37 ± 2.38 s⁻¹
  k−2 (off rate, kburst2, sub-optimal conformation): 0.71 ± 0.62 s⁻¹
AbyU [5]; burst phase 2, two-step binding, reverse rearrangement, 20 °C, pH 7.5
  k−4: 0.90 ± 2.29 s⁻¹
AbyU [5]; equilibrium constant of rearrangement
  K4 (k−4/k4): 0.66 ± 2.81
